Drawing on patent US4397853A, “Isoxazole derivatives” (Yoshitomi Pharmaceutical Industries Ltd., priority 1979, dated 1983), this text covers ED50 for 4 molecules.

This test concerns male dd-mice. Put plainly: anti-apomorphine activity in mice (inhibition of motor activity after apomorphine, animex). In kind it is in vivo. The following applies: Mus musculus, po, read-out: Anti-apomorphine activity ED50 (dose which inhibited the motor activity by 50% as compared with the control). As to the method: Groups of 5 male dd-mice (20-25 g body weight) each were used. Apomorphine hydrochloride (0.5 mg/kg) was subcutaneously administered 60 minutes after oral administration of test compound. Immediately after the apomorphine treatment, motor activity was determined for 20 minutes by animex. For the control groups, 0.5% methylcellulose solution was administered instead of test compound. The ED50, a dose which inhibited the motor activity by 50% as compared with the control, was determined.

Where [1] appears, read: male dd-mice, p.o., 60 min before apomorphine hydrochloride 0.5 mg/kg s.c., motor activity for 20 min by animex.

SMILES strings stand for the structures. Where two headings read alike, the source gives them in different places.

For orientation: ED50 means the midpoint of the dose-response relation. As to `O=c1[nH]c2ccccc2n1C1CCN(CC2=NOC(c3ccc(F)cc3)C2)CC1` (stereo not shown) [A, 1-[5-(4-Fluorophenyl)-4,5-dihydroisoxazol-3-ylmethyl]-4-(2-oxo-1-benzimidazolinyl)piperidine], the ED50 under setting [1] worked out at 1.7 mg/kg.

Turning to `O=c1[nH]c2cc(F)ccc2n1C1CCN(CC2=NOC(c3ccc(F)cc3)C2)CC1` (stereo not shown) [B, 1-[5-(4-Fluorophenyl)-4,5-dihydroisoxazol-3-ylmethyl]-4-(5-fluoro-2-oxo-1-benzimidazolinyl)piperidine], the ED50 under setting [1] was 2.1 mg/kg. On to `OC1(c2ccc(Cl)cc2)CCN(CC2=NOC(c3ccc(F)cc3)C2)CC1` (stereo not shown) [C, 1-[5-(4-Fluorophenyl)-4,5-dihydroisoxazol-3-ylmethyl]-4-(4-chlorophenyl)-4-hydroxypiperidine], for which the ED50 worked out at 3.4 mg/kg.

As for `CN1CCN(C2=Nc3cc(Cl)ccc3Nc3ccccc32)CC1` [Clozapine, reference compound], the 50% effective dose (ED50) under setting [1] worked out at 10 mg/kg.
